Where a name gives a salt, the structure may show the parent alone. Read-outs that look alike come from different tables or passages of the source.
Experiments:
plasmodium berghei = assay: suppression of parasitemia in mice infected with plasmodium berghei; assay type: in vivo; settings: for ED50: Plasmodium berghei, sc; for ED50 / Mean % Parasitemia / Mean % Suppression / % died: mice
Experimental: Five representative amidinoureas were tested in mice infected with plasmodium berghei. The five compounds tested are the following:
Groups of 10 mice each were used in seven doses totaling 70 mice per compound. The protozoal infection was induced by intraperitoneal injection of 5,000,000 parasitized blood cells from a donor. The compound was administered subcutaneously in doses ranging from 0.15 to 10 mg. per kg., suspended on 0.5% methacel solution (doses expressed as base). The compound was repeatedly injected on the day of inoculation (day 1), day 2 and day 3. Blood smears were performed on days 4, 5, 6 and 10.
Untreated control but infected mice developed fulminating parasitemia of as high as 35% on day 10 and deaths occurred from day 12 to 14.

LD50 in mice = settings: mouse, in vivo
[1] = s.c., 1.0 mg/kg on days 1-3, 4th day
[2] = s.c., 1.0 mg/kg on days 1-3, 5th day
[3] = s.c., 1.0 mg/kg on days 1-3, 6th day
[4] = s.c., 1.0 mg/kg on days 1-3, 10th day
[5] = s.c., 2.0 mg/kg on days 1-3, 4th day
[6] = s.c., 2.0 mg/kg on days 1-3, 5th day
[7] = s.c., 2.0 mg/kg on days 1-3, 6th day
[8] = s.c., 2.0 mg/kg on days 1-3, 10th day
[9] = s.c., 10.0 mg/kg on days 1-3, 4th day
[10] = s.c., 10.0 mg/kg on days 1-3, 5th day
[11] = s.c., 10.0 mg/kg on days 1-3, 6th day
[12] = s.c., 10.0 mg/kg on days 1-3, 10th day
[13] = s.c., .15 mg/kg on days 1-3, 4th day
[14] = s.c., .15 mg/kg on days 1-3, 5th day
[15] = s.c., .15 mg/kg on days 1-3, 6th day
[16] = s.c., .15 mg/kg on days 1-3, 10th day
[17] = s.c., .20 mg/kg on days 1-3, 4th day
[18] = s.c., .20 mg/kg on days 1-3, 5th day
[19] = s.c., .20 mg/kg on days 1-3, 6th day
[20] = s.c., .20 mg/kg on days 1-3, 10th day
[21] = s.c., .30 mg/kg on days 1-3, 4th day
[22] = s.c., .30 mg/kg on days 1-3, 5th day
[23] = s.c., .30 mg/kg on days 1-3, 6th day
[24] = s.c., .30 mg/kg on days 1-3, 10th day
[25] = s.c., .50 mg/kg on days 1-3, 4th day
[26] = s.c., .50 mg/kg on days 1-3, 5th day
[27] = s.c., .50 mg/kg on days 1-3, 6th day
[28] = s.c., .50 mg/kg on days 1-3, 10th day

CCCN=C(NC)NC(=O)Nc1c(C)cccc1C [Compound D, 1-(2,6-dimethylphenyl)-3-N-methyl-N'-propylamidino)urea hydrochloride]
ED50 (plasmodium berghei; 96 h, s.c., levels of parasitemia, 4th day, read-out: SED50 (Suppressant Effective Dose50)): 0.9 mg/kg
ED50 (plasmodium berghei; 120 h, s.c., levels of parasitemia, 5th day, read-out: SED50 (Suppressant Effective Dose50)): 1.91 mg/kg
ED50 (plasmodium berghei; 144 h, s.c., levels of parasitemia, 6th day, read-out: SED50 (Suppressant Effective Dose50)): 2.09 mg/kg
ED50 (plasmodium berghei; 240 h, s.c., levels of parasitemia, 10th day, read-out: SED50 (Suppressant Effective Dose50)): 4.47 mg/kg
ED50 (plasmodium berghei; day 4 to day 10, read-out: HIGHEST SED50): 4.47 mg/kg
ED50 (plasmodium berghei; day 4 to day 10, read-out: LOWEST SED50): 0.9 mg/kg
FACTOR (HIGHEST SED50 ÷ LOWEST SED50) (plasmodium berghei; factor of change, day 4 to day 10, duration of action): 4.97
Mean % Parasitemia (plasmodium berghei; [1]): 2.25%
Mean % Suppression (plasmodium berghei; [1]): 57.1%
Mean % Parasitemia (plasmodium berghei; [2]): 6.50%
Mean % Suppression (plasmodium berghei; [2]): 11.0%
Mean % Parasitemia (plasmodium berghei; [3]): 6.70%
Mean % Suppression (plasmodium berghei; [3]): 28.0%
Mean % Parasitemia (plasmodium berghei; [4]): 22.4%
Mean % Suppression (plasmodium berghei; [4]): 36.9%
% died (plasmodium berghei; s.c., 1.0 mg/kg on days 1-3, 12th day): 20%
% died (plasmodium berghei; s.c., 1.0 mg/kg on days 1-3, 13th day): 20%
% died (plasmodium berghei; s.c., 1.0 mg/kg on days 1-3, 14th day): 40%
Mean % Parasitemia (plasmodium berghei; [5]): 1.75%
Mean % Suppression (plasmodium berghei; [5]): 66.6%
Mean % Parasitemia (plasmodium berghei; [6]): 3.30%
Mean % Suppression (plasmodium berghei; [6]): 54.8%
Mean % Parasitemia (plasmodium berghei; [7]): 4.80%
Mean % Suppression (plasmodium berghei; [7]): 48.4%
Mean % Parasitemia (plasmodium berghei; [8]): 20.5%
Mean % Suppression (plasmodium berghei; [8]): 42.3%
% died (plasmodium berghei; s.c., 2.0 mg/kg on days 1-3, 12th day): 20%
% died (plasmodium berghei; s.c., 2.0 mg/kg on days 1-3, 13th day): 20%
% died (plasmodium berghei; s.c., 2.0 mg/kg on days 1-3, 14th day): 20%
Mean % Parasitemia (plasmodium berghei; [9]): 0.25%
Mean % Suppression (plasmodium berghei; [9]): 96.2%
Mean % Parasitemia (plasmodium berghei; [10]): 0%
Mean % Suppression (plasmodium berghei; [10]): 100.0%
Mean % Parasitemia (plasmodium berghei; [11]): 0%
Mean % Suppression (plasmodium berghei; [11]): 100.0%
Mean % Parasitemia (plasmodium berghei; [12]): 0%
Mean % Suppression (plasmodium berghei; [12]): 100.0%
% died (plasmodium berghei; s.c., 10.0 mg/kg on days 1-3, 13th day): 0%
% died (plasmodium berghei; s.c., 10.0 mg/kg on days 1-3, 14th day): 0%
Mean % Parasitemia (plasmodium berghei; [13]): 5.00%
Mean % Suppression (plasmodium berghei; [13]): 4.8%
Mean % Parasitemia (plasmodium berghei; [14]): 7.40%
Mean % Suppression (plasmodium berghei; [14]): 0%
Mean % Parasitemia (plasmodium berghei; [15]): 9.20%
Mean % Suppression (plasmodium berghei; [15]): 1.1%
Mean % Parasitemia (plasmodium berghei; [16]): 34.0%
Mean % Suppression (plasmodium berghei; [16]): 4.2%
% died (plasmodium berghei; s.c., .15 mg/kg on days 1-3, 12th day): 0%
% died (plasmodium berghei; s.c., .15 mg/kg on days 1-3, 13th day): 20%
% died (plasmodium berghei; s.c., .15 mg/kg on days 1-3, 14th day): 80%
Mean % Parasitemia (plasmodium berghei; [17]): 4.50%
Mean % Suppression (plasmodium berghei; [17]): 14.3%
Mean % Parasitemia (plasmodium berghei; [18]): 7.30%
Mean % Suppression (plasmodium berghei; [18]): 0%
Mean % Parasitemia (plasmodium berghei; [19]): 9.10%
Mean % Suppression (plasmodium berghei; [19]): 2.2%
Mean % Parasitemia (plasmodium berghei; [20]): 30.8%
Mean % Suppression (plasmodium berghei; [20]): 13.2%
% died (plasmodium berghei; s.c., .20 mg/kg on days 1-3, 12th day): 40%
% died (plasmodium berghei; s.c., .20 mg/kg on days 1-3, 13th day): 60%
% died (plasmodium berghei; s.c., .20 mg/kg on days 1-3, 14th day): 100%
Mean % Parasitemia (plasmodium berghei; [21]): 4.50%
Mean % Suppression (plasmodium berghei; [21]): 14.3%
Mean % Parasitemia (plasmodium berghei; [22]): 7.20%
Mean % Suppression (plasmodium berghei; [22]): 1.4%
Mean % Parasitemia (plasmodium berghei; [23]): 8.20%
Mean % Suppression (plasmodium berghei; [23]): 11.8%
Mean % Parasitemia (plasmodium berghei; [24]): 26.5%
Mean % Suppression (plasmodium berghei; [24]): 25.4%
% died (plasmodium berghei; s.c., .30 mg/kg on days 1-3, 12th day): 0%
% died (plasmodium berghei; s.c., .30 mg/kg on days 1-3, 13th day): 0%
% died (plasmodium berghei; s.c., .30 mg/kg on days 1-3, 14th day): 60%
Mean % Parasitemia (plasmodium berghei; [25]): 3.50%
Mean % Suppression (plasmodium berghei; [25]): 33.3%
Mean % Parasitemia (plasmodium berghei; [26]): 7.10%
Mean % Suppression (plasmodium berghei; [26]): 2.7%
Mean % Parasitemia (plasmodium berghei; [27]): 7.30%
Mean % Suppression (plasmodium berghei; [27]): 21.5%
Mean % Parasitemia (plasmodium berghei; [28]): 24.3%
Mean % Suppression (plasmodium berghei; [28]): 31.5%
% died (plasmodium berghei; s.c., .50 mg/kg on days 1-3, 12th day): 20%
% died (plasmodium berghei; s.c., .50 mg/kg on days 1-3, 13th day): 40%
% died (plasmodium berghei; s.c., .50 mg/kg on days 1-3, 14th day): 80%
LD50 (LD50 in mice): 222 to 366 mg/kg
